Data published in US20230406906A1, “SERPIN PEPTIDES AND METHODS OF USING THE SAME” (SERPIN PHARMA, LLC, priority 2022, published 2023).

Tests used:
LRP1 = target: T1, LRP1 (Rattus norvegicus, UniProt G3V928); test: Cell signaling analysis in PC12 cells (phospho-ERK1/2, phospho-Akt immunoblot); assay type: cell-based
T1 construct: host or cells: rat PC12 cells
Description: Cell signaling analysis: Rat PC12 cells were purchased from ATCC (CRL-1721). PC12 cells were maintained in high glucose DMEM (Gibco, USA) containing 10% heat-inactivated FBS (Gibco, USA), 5% HyClone heat-inactivated horse serum (Cytiva, USA), penicillin (100 units/ml) and streptomycin ([…]) in 6-well plates that were pre-coated with 0.01 mg/ml type IV collagen (Sigma-Aldrich, St. Louis, MO, USA). Cells were transferred to serum-free medium (SFM) 4 h prior to adding effectors, and then treated with SP163M (2.4, 24 or 240 nM); EI-tPA (12 nM), NGF (0.36 nM), or vehicle (PBS) for 10 min. In some cases, cells were pre-incubated with the competitive antagonist of LRP1, GST-RAP (150 nM) for 15 min or electroporated using the Rat Neuron Nucleofector Amaxa Kit (Lonza Biosciences) and incubated with siRNA to silence LRP1 expression (siLRP1; M-094191-01-0010, Dharmacon) for 48 h. Control cells were transfected with non-targeting control (NTC) siRNA (NTC; D-001810-10-05, Dharmacon). Cells were rinsed with ice-cold PBS and proteins were extracted in RIPA buffer (20 mM sodium phosphate, 150 mM NaCl, pH 7.4, 1% Triton X-100, 0.5% sodium deoxycholate, 0.1% SDS) supplemented with protease and phosphatase inhibitors (Roche Diagnostics, USA). After 30 min on ice, lysates were centrifuged at 15000×g for 5 min, supernatant collected and stored at −20° C. Equal amounts of protein from cell lysates (20 μg), as determined by BCA Protein Assay (ThermoFisher Scientific, Waltham, MA, USA), were subjected to 10% SDS-PAGE and electro-transferred to nitrocellulose membranes. The membranes were blocked with 5% nonfat dried milk and then incubated with primary anti-phospho-AKT (Cell Signaling Technology, Danvers, MA, USA; cat #9271S; 1:1000), anti-phospho-ERK1/2 (Cell Signaling Technology, Danvers, MA, USA; cat #9101S; 1:1000), anti-LRP1 (Cell Signaling Technology, Danvers, MA, USA; cat #64099S; 1:1000) or anti total-ERK1/2 (Cell Signaling Technology, Danvers, MA, USA; cat #91012S; 1:1000). Immunoblots were developed using Radiance, Radiance Q, and Radiance Plus chemiluminescent substrates and imaged using a BioRad ChemiDoc Imaging System (Bio-Rad, Hercules, CA, USA).

C57BL/6J mice = test: Intraplantar capsaicin model of acute nociception; assay type: in vivo; settings: male mice, 2 μg/g 1 h before capsaicin, 10 min
Description: For the capsaicin studies, male (n=41) and female (n=37) mice were acclimated to the behavior testing facility for at least 1 h. Capsaicin was dissolved in 20% (2-hydroxypropyl)-β-cyclodextrin (Sigma-Aldrich, St. Louis, MO, USA) solution. […] Subsequently, 10 μl of 2 μg/μl capsaicin solution was injected into the plantar area of left hind paw. Immediately after capsaicin injection, mice were placed in a plexiglass box. Two observers, blinded to treatments, recorded the time spent licking and flinching the left hind paw over 10 min.

NFκB [1] = test: NFκB reporter assay (THP1-XBlue-MD2-CD14 cells, LPS, SEAP read-out); assay type: cell-based; settings: peptide 50 μg/ml before LPS 5 ng/ml, overnight
Description: The reporter cells (THP1-XBlue-MD2-CD14 cells) were treated with each peptide (50 μg/ml) before being insulted with LPS (5 ng/ml) and incubated overnight. The NFκB inducible Secreted Embryonic Alkaline Phosphatase (SEAP) was measured in the supernatant and read for absorbance.

NFκB [2] = test: as above; assay type: cell-based; settings: without LPS
[3] = target: LRP1 (low-density lipoprotein receptor-related protein 1) on rat PC12 cells (rat) (UniProt G3V928); test: cell-based or functional assay
PAR2 = test: MC903 AD model, PAR2 protein expression in ears (western blot); assay type: in vivo, mice; settings: topical, normalized to beta-actin
Description: (§1) Mice were treated with SP16 in 70% EtOH (MC903+SP16) or drug vehicle (MC903). Normal control (NC) mice were treated with EtOH only. Ears were measured for PAR2 protein expression through western blot analysis (quantitative analysis after normalization to beta-actin shown) (n=3-5). TSLP was measured in both the ears and serum by ELISA (N=3-5). Scratching was assessed over a 3 minute period after a 5-minute acclimatization period and the number of scratches are shown (n=3). IL-4 was measured in ear lysate via ELISA (N=3-5).

IL-4 = test: MC903 AD model, IL-4 in ear lysate via ELISA; assay type: in vivo, mice; settings: topical
Description: as §1

TSLP [4] = test: Poly I:C-induced TSLP production by SPINK7 knockout EPC2 cells (ELISA); assay type: cell-based, Human; settings: SPINK7 knockout esophageal cells, Poly I:C 5 μg/ml, 8 hours
Description: FIG. 12A: Poly I:C-induced TSLP production by SPINK7 knockout EPC2 cells (Human esophageal epithelial cells). SPINK7 KO cells and control cells were plated in high calcium and high density, for 48 hours before being treated with SP16 or 7G and Poly I:C (5 μg/ml, or untreated) for 8 hours. TSLP production in the supernatant was measured by ELISA. FIG. 12B: primary esophageal epithelial cells (EPC2) were treated with SP16 and then stimulated with IL-13, a TH2 response mediated cytokine, to induce CCL26.
SP16 reduces several key cytokines involved in allergic responses. Upon knockout of SPINK7, esophageal epithelial cells release exacerbated levels of TSLP. TSLP is a key mediator of immune cell responses upon activation to an insult such as allergens.

mice [5] = test: OVA-induced allergic inflammation model, eosinophils in BALF by flow cytometry; assay type: in vivo
Description: FIG. 15A: mice were subjected to the OVA-challenge allergic inflammation model and treated with vehicle, SP16, or A1AT during the challenge phase. The BALF was collected and analyzed for the percent of eosinophils and compared to saline (non-challenged) mice, vehicle OVA induced mice, or SP16 treated OVA induced mice.
The impact of SP16 treatment on eosinophilic infiltration in mice was assessed using the OVA-induced allergic inflammation model. The number of eosinophils in the bronchoalveolar lavage fluid was quantified by flow cytometry.

TSLP [6] = test: MC903 AD model, TSLP in ears and serum by ELISA; assay type: in vivo; settings: topical, vs MC903 treated mice
Description: as §1

CCL24 = test: OVA-challenge allergic inflammation model, BALF CCL24 via ELISA; assay type: in vivo; settings: treated during OVA challenge phase, sensitized mice
Description: (§2) Mice were subjected to the OVA-challenge allergic inflammation model and treated with vehicle or SP16 during the challenge phase. The bronchoalveolar lavage fluid (BALF) was analyzed for cytokines via ELISA.

IL-2 = test: OVA-challenge allergic inflammation model, BALF IL-2 via ELISA; assay type: in vivo; settings: treated during OVA challenge phase, sensitized mice
Description: as §2

IL-1a = test: OVA-challenge allergic inflammation model, BALF IL-1a via ELISA; assay type: in vivo; settings: treated during OVA challenge phase, sensitized mice
Description: as §2

CCL26 = CCL26 release by esophageal epithelial cells (EPC2); assay type: cell-based, Human
mice [7] = test: MC903 AD-like inflammatory skin model, topical treatment (dermatitis score, ear volume, scratching); assay type: in vivo
Description: SP16 (in 70% ethanol) was applied topically to the ears on the days of the MC903 applications (MC903+SP16). Drug vehicle (70% EtOH) was applied to control animals (MC903) and normal control animals (NC) received EtOH in place of MC903. In-life parameters: Dermatitis score (FIG. 16A) and ear volume (FIG. 16B) measured on days 0, 3, 7, 9, 11 and 14. […] Clinical Dermatitis Score (score 0-4 for each parameter)—erythema, scale/dryness, edema, excoriation/erosion (total score 0-16).
as §1

STAT6 = test: IL-13 stimulated STAT6 phosphorylation in esophageal EPC2 cells (western blot); assay type: cell-based, Human; settings: 30 minutes post IL-13 induction
Description: Esophageal EPC2 cells were treated with vehicle (ddw), A1AT or SP163M. Cells were collected at time-points indicated and western blot analysis of phospho-specific STAT6 was analyzed. […] Using CRISPER/CAS9 technology, an LRP1 knockout esophageal EPC2 cell line was created.

T1 sequence (G3V928 20-3944 limits assumed): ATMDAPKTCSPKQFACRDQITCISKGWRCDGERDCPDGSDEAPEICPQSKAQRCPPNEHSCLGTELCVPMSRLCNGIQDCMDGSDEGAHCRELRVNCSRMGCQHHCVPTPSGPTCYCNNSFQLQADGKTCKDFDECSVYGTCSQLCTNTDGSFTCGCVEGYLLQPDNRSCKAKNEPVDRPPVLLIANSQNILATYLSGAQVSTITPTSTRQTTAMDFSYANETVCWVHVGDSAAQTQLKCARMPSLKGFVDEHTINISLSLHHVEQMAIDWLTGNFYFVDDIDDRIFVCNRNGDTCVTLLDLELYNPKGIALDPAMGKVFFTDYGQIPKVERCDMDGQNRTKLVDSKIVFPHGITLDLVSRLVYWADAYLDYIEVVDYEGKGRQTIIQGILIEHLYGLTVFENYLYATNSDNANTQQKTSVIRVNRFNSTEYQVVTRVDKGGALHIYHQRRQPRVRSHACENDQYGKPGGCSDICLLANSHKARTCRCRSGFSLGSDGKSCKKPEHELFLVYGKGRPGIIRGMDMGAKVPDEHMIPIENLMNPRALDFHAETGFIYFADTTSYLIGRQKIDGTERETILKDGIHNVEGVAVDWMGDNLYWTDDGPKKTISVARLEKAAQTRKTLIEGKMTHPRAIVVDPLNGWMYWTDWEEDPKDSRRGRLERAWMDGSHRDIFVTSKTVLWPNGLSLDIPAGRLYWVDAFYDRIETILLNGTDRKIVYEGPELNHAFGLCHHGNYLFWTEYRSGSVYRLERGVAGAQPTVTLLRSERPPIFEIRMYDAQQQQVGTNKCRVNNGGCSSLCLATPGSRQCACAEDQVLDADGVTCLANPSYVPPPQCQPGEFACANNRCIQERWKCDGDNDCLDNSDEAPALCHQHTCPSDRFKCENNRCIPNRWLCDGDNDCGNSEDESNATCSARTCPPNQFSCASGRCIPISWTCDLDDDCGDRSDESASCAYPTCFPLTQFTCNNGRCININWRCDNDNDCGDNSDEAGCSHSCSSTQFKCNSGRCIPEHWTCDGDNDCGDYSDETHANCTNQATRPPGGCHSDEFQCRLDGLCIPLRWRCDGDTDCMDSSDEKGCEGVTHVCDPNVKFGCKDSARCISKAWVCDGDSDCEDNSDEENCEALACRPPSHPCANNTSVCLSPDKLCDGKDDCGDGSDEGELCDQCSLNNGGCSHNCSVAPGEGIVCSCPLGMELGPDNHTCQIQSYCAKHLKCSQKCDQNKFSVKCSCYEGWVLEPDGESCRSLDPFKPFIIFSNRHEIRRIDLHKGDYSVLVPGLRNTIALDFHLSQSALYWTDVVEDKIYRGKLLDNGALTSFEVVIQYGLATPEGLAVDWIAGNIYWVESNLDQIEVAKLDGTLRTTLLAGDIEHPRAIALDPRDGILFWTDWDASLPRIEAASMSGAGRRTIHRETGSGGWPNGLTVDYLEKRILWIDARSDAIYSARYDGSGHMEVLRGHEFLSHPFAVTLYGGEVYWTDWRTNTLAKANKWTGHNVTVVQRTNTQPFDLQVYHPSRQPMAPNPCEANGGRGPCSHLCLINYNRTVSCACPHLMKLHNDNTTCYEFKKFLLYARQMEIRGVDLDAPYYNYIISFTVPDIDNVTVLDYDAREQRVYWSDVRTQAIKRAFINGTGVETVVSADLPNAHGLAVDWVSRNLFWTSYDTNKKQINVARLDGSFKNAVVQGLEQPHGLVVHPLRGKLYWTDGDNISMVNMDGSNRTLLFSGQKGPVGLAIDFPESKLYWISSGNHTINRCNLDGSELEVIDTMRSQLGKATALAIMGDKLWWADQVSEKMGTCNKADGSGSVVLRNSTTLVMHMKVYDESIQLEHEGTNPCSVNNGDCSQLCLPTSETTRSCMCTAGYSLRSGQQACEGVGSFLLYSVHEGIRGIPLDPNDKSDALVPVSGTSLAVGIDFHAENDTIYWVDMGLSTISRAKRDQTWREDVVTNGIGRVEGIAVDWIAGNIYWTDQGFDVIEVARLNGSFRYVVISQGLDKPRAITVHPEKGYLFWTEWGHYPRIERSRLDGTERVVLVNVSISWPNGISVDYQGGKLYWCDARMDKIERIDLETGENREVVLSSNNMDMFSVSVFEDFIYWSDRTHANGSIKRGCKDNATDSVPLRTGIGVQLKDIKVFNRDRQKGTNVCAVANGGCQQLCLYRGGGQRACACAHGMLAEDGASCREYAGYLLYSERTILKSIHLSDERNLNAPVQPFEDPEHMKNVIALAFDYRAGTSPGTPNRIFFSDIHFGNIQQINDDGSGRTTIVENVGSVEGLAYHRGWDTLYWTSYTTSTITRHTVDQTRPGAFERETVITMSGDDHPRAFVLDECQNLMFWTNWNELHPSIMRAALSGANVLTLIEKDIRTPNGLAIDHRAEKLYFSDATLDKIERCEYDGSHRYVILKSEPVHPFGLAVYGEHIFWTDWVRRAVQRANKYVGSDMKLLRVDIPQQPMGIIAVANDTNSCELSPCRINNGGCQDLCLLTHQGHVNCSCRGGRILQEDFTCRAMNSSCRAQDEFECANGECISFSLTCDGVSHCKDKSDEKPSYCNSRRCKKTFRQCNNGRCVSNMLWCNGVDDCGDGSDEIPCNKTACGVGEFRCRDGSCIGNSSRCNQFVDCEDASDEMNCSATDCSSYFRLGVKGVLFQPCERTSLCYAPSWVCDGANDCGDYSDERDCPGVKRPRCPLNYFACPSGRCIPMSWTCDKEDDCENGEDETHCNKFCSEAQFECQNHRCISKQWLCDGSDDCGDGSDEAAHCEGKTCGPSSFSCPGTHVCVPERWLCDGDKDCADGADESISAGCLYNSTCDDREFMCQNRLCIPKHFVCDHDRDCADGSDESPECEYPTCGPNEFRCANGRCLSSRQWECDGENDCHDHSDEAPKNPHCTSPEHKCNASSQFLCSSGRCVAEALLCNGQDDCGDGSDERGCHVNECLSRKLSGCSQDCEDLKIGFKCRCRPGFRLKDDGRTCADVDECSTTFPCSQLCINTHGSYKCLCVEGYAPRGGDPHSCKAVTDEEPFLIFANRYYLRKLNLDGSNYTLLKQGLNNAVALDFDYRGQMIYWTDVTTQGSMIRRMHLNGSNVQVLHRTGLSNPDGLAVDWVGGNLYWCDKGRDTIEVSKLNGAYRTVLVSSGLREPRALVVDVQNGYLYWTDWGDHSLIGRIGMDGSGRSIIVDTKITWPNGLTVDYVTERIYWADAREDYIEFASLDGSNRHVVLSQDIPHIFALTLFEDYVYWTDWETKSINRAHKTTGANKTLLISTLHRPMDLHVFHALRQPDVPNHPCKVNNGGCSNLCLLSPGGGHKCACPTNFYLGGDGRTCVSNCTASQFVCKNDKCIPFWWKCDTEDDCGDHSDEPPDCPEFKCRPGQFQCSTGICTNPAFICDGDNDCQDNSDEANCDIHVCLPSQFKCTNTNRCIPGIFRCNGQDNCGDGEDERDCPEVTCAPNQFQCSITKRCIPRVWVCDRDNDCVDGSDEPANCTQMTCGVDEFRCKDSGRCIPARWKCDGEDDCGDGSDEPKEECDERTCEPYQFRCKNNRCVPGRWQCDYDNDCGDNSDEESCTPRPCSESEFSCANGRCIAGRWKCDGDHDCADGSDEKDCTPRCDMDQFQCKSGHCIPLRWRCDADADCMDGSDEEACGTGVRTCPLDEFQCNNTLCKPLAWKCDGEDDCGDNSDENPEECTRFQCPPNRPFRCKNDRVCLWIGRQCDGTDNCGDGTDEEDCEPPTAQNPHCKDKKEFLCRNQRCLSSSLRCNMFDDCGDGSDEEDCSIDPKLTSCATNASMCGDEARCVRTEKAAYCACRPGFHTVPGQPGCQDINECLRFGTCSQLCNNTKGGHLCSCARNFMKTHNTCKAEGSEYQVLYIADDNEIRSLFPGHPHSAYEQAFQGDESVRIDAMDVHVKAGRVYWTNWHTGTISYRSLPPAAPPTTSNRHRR
T1 sequence (G3V928 3945-4545 partner limits assumed): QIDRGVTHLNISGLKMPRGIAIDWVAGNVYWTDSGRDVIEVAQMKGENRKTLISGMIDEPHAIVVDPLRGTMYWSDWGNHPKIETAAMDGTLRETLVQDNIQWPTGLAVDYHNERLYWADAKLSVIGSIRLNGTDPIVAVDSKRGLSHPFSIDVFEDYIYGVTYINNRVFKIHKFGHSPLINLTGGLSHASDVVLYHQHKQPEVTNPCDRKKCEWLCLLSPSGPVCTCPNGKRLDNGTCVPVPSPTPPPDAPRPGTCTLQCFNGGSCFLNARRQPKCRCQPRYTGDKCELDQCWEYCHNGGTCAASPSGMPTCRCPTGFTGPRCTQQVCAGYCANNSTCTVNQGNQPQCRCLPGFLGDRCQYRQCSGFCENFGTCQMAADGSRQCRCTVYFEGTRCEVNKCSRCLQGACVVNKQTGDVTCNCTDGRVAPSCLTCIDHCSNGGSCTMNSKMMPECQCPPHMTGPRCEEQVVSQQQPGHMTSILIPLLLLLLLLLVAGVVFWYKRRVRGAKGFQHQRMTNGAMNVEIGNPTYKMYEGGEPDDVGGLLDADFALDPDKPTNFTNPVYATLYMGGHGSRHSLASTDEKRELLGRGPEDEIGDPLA

EI-tPA: Recombinant human EI-tPA, derivative of tissue-type plasminogen activator, known LRP1 agonist [reference compound]
activation of ERK1/2 in cells transfected with LRP1-specific siRNA (LRP1; 48 h after transfection): ERK1/2 was not activated
activation of ERK1/2 in cells transfected with NTC siRNA (LRP1; 48 h after transfection): also robustly activated ERK1/2
capsaicin induced acute pain-related behavior (time spent licking) (C57BL/6J mice): blocked the capsaicin induced acute pain-related behavior

FPKMVPQFNTELKIFPEVNIK (FPKMVPQFNTELKIFPEVNIK) [SP34, reference compound]
NFκB activity (NFκB inducible SEAP in supernatant) (NFκB [1]): neither the scrambled core control peptide nor the AAT 0-36 fragment decreased the NFκB activity

SIPPEVKFNKPFVFLMIEQNTKSPLFMGKVVNP (SIPPEVKFNKPFVFLMIEQNTKSPLFMGKVVNP; SP16 peptide core sequence including the LRP1 binding site; listed as Homo sapiens) [SP8, reference compound]
NFκB activity (NFκB inducible SEAP in supernatant) (NFκB [1]): neither the scrambled core control peptide nor the AAT 0-36 fragment decreased the NFκB activity
NFkB induction by the peptide alone (NFκB [2]): showed NFkB inducible properties without the need for LPS

RRRVKFNKPFVFLMIEQNTKRRR (RRRVKFNKPFVFLMIEQNTKRRR) [SP21]
NFκB activity (NFκB inducible SEAP in supernatant) (NFκB [1]): NFkB inhibition increased as well relative to SP16

V R F N R P F L (VRFNRPFL) [SP31]
NFκB activity (NFκB inducible SEAP in supernatant) (NFκB [1]): the anti-inflammatory activity of the peptide was lost

NGF: NGF-β purchased from Sigma, cell signaling control [reference compound]
activation of ERK1/2 (cell signaling control) (LRP1; 0.36 nM, 10 min): also activated ERK1/2

R R R V K F N K P F V F L M R R R (RRRVKFNKPFVFLMRRR) [SP22]
NFκB activity (NFκB inducible SEAP in supernatant) (NFκB [1]): the NFκB activity was significantly reduced

Receptor associated protein expressed as a glutathione-S-transferase fusion protein (GST-RAP)
block of SP163M-induced phospho-Akt and phospho-ERK1/2 in PC12 cells (immunoblot); concentration of RAP used [3]: 150 nM

V K F N K P F V F L M I E Q N T K (VKFNKPFVFLMIEQNTK; SP16 peptide core sequence including the LRP1 binding site; listed as Homo sapiens)
PAR2 protein expression in ears (PAR2): PAR2 and TSLP inhibition
IL-4 release in the skin tissue (IL-4): significantly reduced in SP16-treated animals
Poly I:C mediated TSLP release (TSLP [4]): effective in significantly reducing Poly I:C mediated TSLP and CCL26 release
activation of ERK1/2 over time (LRP1; 240 nM, 0-30 min): robustly activated ERK1/2 from 5 to 30 min
lowest concentration activating phospho-ERK1/2 (LRP1; 10 min): 24 nM
activation of ERK1/2 in cells transfected with NTC siRNA (LRP1; 48 h after transfection): ERK1/2 was robustly activated
eosinophil infiltration into the lungs (BALF) (mice [5]): significantly (p=0.04) reduces eosinophil infiltration into the lungs
NFκB activity (NFκB inducible SEAP in supernatant) (NFκB [1]): capable of reducing NFκB activity
systemic (serum) and local (ear) TSLP (TSLP [6]): a significant reduction in systemic (serum) and local (ear) TSLP compared to MC903 treated mice
CCL24 in BALF (CCL24): significantly reduces CCL24 following OVA-challenge in sensitized mice
IL-2 in BALF (IL-2): significantly reduces IL-2 following OVA-challenge in sensitized mice
IL-1a in BALF (IL-1a): significantly reduces IL-1a following OVA-challenge in sensitized mice
CCL26 release (CCL26; EPC2 cells stimulated with IL-13): significantly reduced CCL26 release dose dependently
Poly I:C mediated CCL26 release (CCL26; SPINK7 knockout esophageal cells): effective in significantly reducing Poly I:C mediated TSLP and CCL26 release
disease improvement (dermatitis score, ear volume) (mice [7]; topical solution (1%) in 70% ethanol, 14-day period, vs vehicle): a significant improvement in disease vs. vehicle-treated mice
pruritis (number of scratches) (mice [7]; topical, vs vehicle (MC903) treated mice): significantly reduces pruritis compared to vehicle (MC903) treated mice

A1AT: alpha-1 antitrypsin, the prototypical SERPIN
STAT6 phosphorylation (STAT6): STAT6 was phosphorylated in vehicle and A1AT treated cells

V K F N K P F V F L M (VKFNKPFVFLM) [SP20]
NFκB activity (NFκB inducible SEAP in supernatant) (NFκB [1]): did not have an inhibitory effect

R R R V R F N R P F L R R R (RRRVRFNRPFLRRR) [SP32]
NFκB activity (NFκB inducible SEAP in supernatant) (NFκB [1]): could not be restored with the poly arginine flanks
